Tested on: melanoma cells of the line MeW 155
Assay: Effect of synthetic peptides on proliferation of melanoma cells, 3 day culture in 96-well plate
Type: cell-based
Settings: 3 days of culture; for cell numbers, % of the control: 4000 cells per well; for toxicity to MeW 155 melanoma cells: MeW 155, 0.1 mM
Procedure: The synthetic peptides were examined for their effect on the proliferation of melanoma cells of the line MeW 155. The culture was maintained under standard conditions for 3 days with 4000 cells per well of a 96-well culture plate. After three days, the numbers of cells in the control group increased to 120 000. It turned out that after 3 days of culture, peptide 91 at a concentration of 0.004 mM decreased cell numbers to 55% of the control, and a 0.02 mM concentration decreased the cells to 35%, whereas 0.1 mM was toxic to MeW 155 cells. Peptide 92 at 0.004 mM decreased the number of tumour cells to 65% of the control, a 0.02 mMol concentration decreased the number of cells to 49%, and a concentration of 0.1 mM was toxic to melanoma cells.

| Sequence | cell numbers, % of the control (MeW 155, 0.004 mM) [%] | cell numbers, % of the control (MeW 155, 0.02 mM) [%] | toxicity to MeW 155 melanoma cells |
| --- | --- | --- | --- |
| YRPWGSGSGF [compound 92] | 65 | 49 | toxic |
| YRPWGSGSGFG [peptide 91] | 55 | 35 | toxic |
